Measurements from US20250171445A1, “DEUTERIUM-ENRICHED PIPERIDINYL-METHYL-PURINE AMINE SALTS, CRYSTALLINE FORMS, AND THEIR USE IN TREATING MEDICAL DISEASES AND CONDITIONS” (K36 Therapeutics, Inc., priority 2023, published 2025).
pIC50: −log10 of the molar value.

Biological target: T1, recombinant human NSD2 (Homo sapiens, UniProt O96028)
T1 construct: (amino acids 2-end); His tag (N); host or cells: Sf9 insect cells
T1 sequence (O96028 2-1365 limits assumed): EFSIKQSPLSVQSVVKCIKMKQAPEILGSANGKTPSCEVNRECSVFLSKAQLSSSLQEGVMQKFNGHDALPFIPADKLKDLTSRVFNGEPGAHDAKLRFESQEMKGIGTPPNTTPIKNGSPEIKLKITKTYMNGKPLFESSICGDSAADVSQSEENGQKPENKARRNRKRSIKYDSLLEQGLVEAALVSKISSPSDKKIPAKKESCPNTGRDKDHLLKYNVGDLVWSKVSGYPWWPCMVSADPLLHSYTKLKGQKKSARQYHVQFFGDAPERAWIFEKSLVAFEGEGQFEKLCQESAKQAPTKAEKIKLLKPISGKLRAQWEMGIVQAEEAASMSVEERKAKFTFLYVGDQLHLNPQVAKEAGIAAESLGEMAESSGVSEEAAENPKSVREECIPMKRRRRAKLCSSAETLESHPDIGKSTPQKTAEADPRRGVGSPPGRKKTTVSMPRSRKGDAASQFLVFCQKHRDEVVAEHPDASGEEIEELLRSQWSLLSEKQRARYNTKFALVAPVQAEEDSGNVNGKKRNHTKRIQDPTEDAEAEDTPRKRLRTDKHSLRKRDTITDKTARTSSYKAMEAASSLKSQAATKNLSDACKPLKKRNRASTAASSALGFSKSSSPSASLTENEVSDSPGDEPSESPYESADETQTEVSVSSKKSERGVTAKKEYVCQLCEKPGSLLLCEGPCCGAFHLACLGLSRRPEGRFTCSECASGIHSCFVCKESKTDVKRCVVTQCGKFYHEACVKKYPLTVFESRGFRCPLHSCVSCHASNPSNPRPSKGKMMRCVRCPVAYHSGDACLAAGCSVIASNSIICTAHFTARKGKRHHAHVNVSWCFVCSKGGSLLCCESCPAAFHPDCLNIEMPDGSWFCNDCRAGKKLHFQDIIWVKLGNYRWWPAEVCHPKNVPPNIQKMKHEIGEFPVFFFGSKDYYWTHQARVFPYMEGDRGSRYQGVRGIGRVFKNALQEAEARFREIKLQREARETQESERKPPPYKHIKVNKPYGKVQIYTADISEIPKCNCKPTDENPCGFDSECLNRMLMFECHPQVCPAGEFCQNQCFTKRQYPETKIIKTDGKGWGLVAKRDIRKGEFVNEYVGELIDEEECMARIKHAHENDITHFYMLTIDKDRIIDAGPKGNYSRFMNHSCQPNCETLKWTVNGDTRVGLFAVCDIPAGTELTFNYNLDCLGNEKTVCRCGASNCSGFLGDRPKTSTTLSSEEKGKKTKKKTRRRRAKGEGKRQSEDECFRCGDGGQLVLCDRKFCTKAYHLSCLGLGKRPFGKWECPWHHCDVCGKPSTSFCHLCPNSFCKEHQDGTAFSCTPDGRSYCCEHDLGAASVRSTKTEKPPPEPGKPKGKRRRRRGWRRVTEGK
Test: NSD2 inhibition assay (3H-SAM histone methyltransferase, oligonucleosome substrate)
Assay type: biochemical
Conditions: recombinant human NSD2 (aa 2-end, His tag) 2 nM, chicken oligonucleosomes 0.05 mg/ml, 3H-SAM 1 μM, 1 hour at 30° C.
Method: The NSDS2 inhibitory activity of a compound can be evaluated using a NSD2 inhibition assay, such as the NSD2 inhibition assay described herein below.
A reaction mixture can be prepared by adding oligonucleosomes from Chicken (0.05 mg/ml) to freshly prepared reaction buffer containing 50 mM Tris-HCl (pH 8.5), 50 mM NaCl, 5 mM MgCl2, 0.01% Brij35, 1 mM DTT, and 1% DMSO followed by the addition of recombinant human NSD2, (amino acids 2-end) with N-terminal His tag (2 nM; GenBank Accession No. NM_001042424; MW=155.5 kDa; expressed in Sf9 insect cells) and gentle mixing. The test compound is diluted in DMSO, added to the reaction mixture in nanoliter amounts (using, e.g., Acoustic Technology (Echo 550, LabCyte Inc. Sunnyvale, CA)) and incubated for 20 minutes at room temperature. The reaction may be initiated by addition of S-Adenosyl-L-[methyl-3H]methionine (3H-SAM; 1 μM), and the mixture is then incubated for 1 hour at 30° C. The reaction mixture can be delivered to filter paper and the methylated substrate quantified by scintillation counting. Data analysis may be performed using Excel and GraphPad Prism software for IC50 curve fits. For additional information on the histone methyltransferase assay, see, for example, Horiuchi K Y, et al., “Assay Development for Histone Methyltransferases,” Assay Drug Dev Technol. 2013 May; 11(4):227-36.

[2H]C([2H])([2H])Oc1cc(F)c(-c2cc(Cn3cnc4c(N)ncnc43)c(N3CCC[C@](N)([C@H](O)C(F)F)C3)cn2)cc1F
pIC50: > 8.00
